Values of other authors, collected in paper PMC12833850, “Hybridization Approach Applied to Umbelliferon and Vanilloids toward New Inhibitors of Carbonic Anhydrases IX and XII with In Vitro Antiproliferative and Anti-inflammatory Activities” (Journal of Medicinal Chemistry, 2026).

Target: T1, hCA IX (Homo sapiens, UniProt Q16790)
T1 construct: made in house
Conditions: data already reported; ref Maresca and Supuran, 2010

- Ki: 198 nM
SMILES: O=c1ccc2cc(O)ccc2o1 [Compound 2, 6-hydroxycoumarin]
